In the supplement of paper PMC11451515:

Assays:
Settings in all cases: 48 h
NOMO1 [1] = experiment: AUC of viability dose-response curve (% viability x log10 dose units); higher = less sensitive
Procedure, shortened: (§1)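 Library compounds in DMSO were applied for 48 h at 37°C at 11 threefold doses (47 μM to 0.79 nM) to medium-adapted leukemia cells in 1536-well plates holding 500 or 1000 cells/well. Luminescence from CellTiter-Glo One was normalised plate by plate against DMSO and cell-free wells. Area under the curve came from trapezoidal integration of a log-logistic fit, after scaling curves that rose above full viability and discarding those that failed quality control. The fit had four parameters and used log10 doses.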

P12-Ichikawa [2] = experiment: as above
Procedure, shortened: as §1

SEM cells [3] = experiment: as above
Procedure, shortened: as §1

SEM cells [4] = experiment: cell viability relative to DMSO control; higher = less cytotoxic
Procedure, shortened: (§2)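 NOMO1 or SEM cells were plated at 500 cells/well and P12-Ichikawa cells at 1000 cells/well in 1536-well plates (5 μl), after each leukemia line had been adapted for at least four passages in each medium. Pin dosing delivered library compounds in DMSO at 11 threefold concentrations, 47 μM to 0.79 nM. CellTiter-Glo One luminescence was read after 48 h at 37°C. Viability is reported as a per-plate percentage of DMSO wells, with cell-free wells as background.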

NOMO1 [5] = experiment: as above
Procedure, shortened: as §2

P12-Ichikawa [6] = experiment: as above
Procedure, shortened: as §2

C/C=C/C/C=C/CCC(=O)[C@H]1O[C@H]1C(N)=O
AUC of viability dose-response curve
Settings | NOMO1 [1] | P12-Ichikawa [2] | SEM cells [3]
HPLM + 10% dialyzed FBS | 457 | 470 | 466
RPMI 5 mM glucose + 10% FBS | 458 | 473 | 464
RPMI 5 mM glucose + 10% dialyzed FBS | 476 | 469 | 464

cell viability [%], SEM cells [4]
Settings | HPLM + 10% dialyzed FBS | RPMI 5 mM glucose + 10% FBS
0.000781 µM | 105 | 106
0.00234 µM | 107 | 117
0.00702 µM | 118 | 132
0.0211 µM | 123 | 110
0.0632 µM | 117 | 121
0.19 µM | 126 | 120
0.569 µM | 109 | 132
1.71 µM | 124 | 111
5.12 µM | 113 | 128
15.4 µM | 112 | 118
46.1 µM | 71.5 | 55.3

C[S+](=O)([O-])c1cc(F)cc2c3c(n(Cc4ccc(Cl)cc4)c12)[C@@H](CC(=O)O)CC3
AUC of viability dose-response curve
Settings | HPLM + 10% dialyzed FBS | RPMI 5 mM glucose + 10% FBS | RPMI 5 mM glucose + 10% dialyzed FBS
P12-Ichikawa [2] | 466 | 451 | 467
SEM cells [3] | 477 | 468 | 461

FC1=CC=C(C=C1)N2/C=C\C=C(C(=O)NC3=CC=C(OC4=C5C=C[NH]C5=NC=C4)C(=C3)F)/C2=O
AUC of viability dose-response curve
Settings | HPLM + 10% dialyzed FBS | RPMI 5 mM glucose + 10% FBS | RPMI 5 mM glucose + 10% dialyzed FBS
NOMO1 [1] | 445 | 456 | 459
P12-Ichikawa [2] | 465 | 459 | 466

cell viability [%]
Settings | NOMO1 [5] | P12-Ichikawa [6] | SEM cells [4]
HPLM + 10% dialyzed FBS, 0.000781 µM | 97 | 99 | 92.6
HPLM + 10% dialyzed FBS, 0.00234 µM | 117 | 111 | 101
HPLM + 10% dialyzed FBS, 0.00702 µM | 106 | 107 | 104
HPLM + 10% dialyzed FBS, 0.0211 µM | 108 | 114 | 112
HPLM + 10% dialyzed FBS, 0.0632 µM | 104 | 117 | 106
HPLM + 10% dialyzed FBS, 0.19 µM | 144 | 118 | 109
HPLM + 10% dialyzed FBS, 0.569 µM | 114 | 122 | 115
HPLM + 10% dialyzed FBS, 1.71 µM | 124 | 112 | 107
HPLM + 10% dialyzed FBS, 5.12 µM | 119 | 114 | 99.9
HPLM + 10% dialyzed FBS, 15.4 µM | 122 | 123 | 77.3
HPLM + 10% dialyzed FBS, 46.1 µM | 112 | 115 | 75.4
RPMI 5 mM glucose + 10% FBS, 0.000781 µM | 104 | 104 | 72.6
RPMI 5 mM glucose + 10% FBS, 0.00234 µM | 111 | 111 | 69.9
RPMI 5 mM glucose + 10% FBS, 0.00702 µM | 109 | 121 | 65.1
RPMI 5 mM glucose + 10% FBS, 0.0211 µM | 110 | 112 | 76
RPMI 5 mM glucose + 10% FBS, 0.0632 µM | 112 | 132 | 67.1
RPMI 5 mM glucose + 10% FBS, 0.19 µM | 125 | 119 | 68.1
RPMI 5 mM glucose + 10% FBS, 0.569 µM | 116 | 128 | 73
RPMI 5 mM glucose + 10% FBS, 1.71 µM | 138 | 122 | 71.6
RPMI 5 mM glucose + 10% FBS, 5.12 µM | 115 | 127 | 60.5
RPMI 5 mM glucose + 10% FBS, 15.4 µM | 101 | 119 | 46.9
RPMI 5 mM glucose + 10% FBS, 46.1 µM | 120 | 111 | 40
RPMI 5 mM glucose + 10% dialyzed FBS, 0.000781 µM | 96.1 | 109 | 101
RPMI 5 mM glucose + 10% dialyzed FBS, 0.00234 µM | 92.7 | 107 | 96.9
RPMI 5 mM glucose + 10% dialyzed FBS, 0.00702 µM | 94.5 | 114 | 98.7
RPMI 5 mM glucose + 10% dialyzed FBS, 0.0211 µM | 107 | 125 | 111
RPMI 5 mM glucose + 10% dialyzed FBS, 0.0632 µM | 108 | 117 | 119
RPMI 5 mM glucose + 10% dialyzed FBS, 0.19 µM | 108 | 124 | 111
RPMI 5 mM glucose + 10% dialyzed FBS, 0.569 µM | 102 | 125 | 121
RPMI 5 mM glucose + 10% dialyzed FBS, 1.71 µM | 124 | 119 | 102
RPMI 5 mM glucose + 10% dialyzed FBS, 5.12 µM | 106 | 129 | 95.7
RPMI 5 mM glucose + 10% dialyzed FBS, 15.4 µM | 115 | 120 | 74.8
RPMI 5 mM glucose + 10% dialyzed FBS, 46.1 µM | 108 | 114 | 55.4

OC(=O)C/1=C/C(=O)NC(=O)N1
AUC of viability dose-response curve
Settings | NOMO1 [1] | P12-Ichikawa [2] | SEM cells [3]
HPLM + 10% dialyzed FBS | 424 | 455 | 466
RPMI 5 mM glucose + 10% FBS | 450 | 457 | 457
RPMI 5 mM glucose + 10% dialyzed FBS | 437 | 456 | 458

C[C@H](CCC(=O)O)[C@H]1CC[C@H]2[C@@H]3[C@@H](O)C[C@@H]4C[C@H](O)CC[C@]4(C)[C@H]3CC[C@]12C
AUC of viability dose-response curve
Settings | NOMO1 [1] | P12-Ichikawa [2] | SEM cells [3]
HPLM + 10% dialyzed FBS | 401 | 445 | 441
RPMI 5 mM glucose + 10% FBS | 414 | 461 | 462
RPMI 5 mM glucose + 10% dialyzed FBS | 398 | 435 | 449

CCN1\C=C(\C(O)=O)C(=O)C2=C1C=C(N3CCNCC3)C(=C2)F
AUC of viability dose-response curve
Settings | NOMO1 [1] | P12-Ichikawa [2] | SEM cells [3]
HPLM + 10% dialyzed FBS | 430 | 456 | 385
RPMI 5 mM glucose + 10% FBS | 465 | 433 | 392
RPMI 5 mM glucose + 10% dialyzed FBS | 455 | 449 | 404

cell viability [%], SEM cells [4]
Settings | HPLM + 10% dialyzed FBS | RPMI 5 mM glucose + 10% dialyzed FBS
0.000781 µM | 95 | 117
0.00234 µM | 130 | 124
0.00702 µM | 125 | 125
0.0211 µM | 136 | 129
0.0632 µM | 116 | 108
0.19 µM | 59.4 | 48.3
0.569 µM | 112 | 114
1.71 µM | 77.9 | 104
5.12 µM | 90.6 | 98
15.4 µM | 59.8 | 101
46.1 µM | 78.8 | 77.8

COC(c1ccccc1)(c1ccccc1)[C@H](Oc1nc(C)cc(C)n1)C(=O)O
AUC of viability dose-response curve
Settings | NOMO1 [1] | P12-Ichikawa [2] | SEM cells [3]
HPLM + 10% dialyzed FBS | 444 | 464 | 462
RPMI 5 mM glucose + 10% FBS | 452 | 465 | 466
RPMI 5 mM glucose + 10% dialyzed FBS | 467 | 464 | 463

SEM cells [4], RPMI 5 mM glucose + 10% dialyzed FBS
Settings | cell viability [%]
0.000781 µM | 115
0.00234 µM | 134
0.00702 µM | 122
0.0211 µM | 139
0.0632 µM | 177
0.19 µM | 160
0.569 µM | 167
1.71 µM | 152
5.12 µM | 140
15.4 µM | 133
46.1 µM | 85.1

COc1ccc2cc([C@H](C)C(=O)O)ccc2c1
AUC of viability dose-response curve
Settings | NOMO1 [1] | P12-Ichikawa [2] | SEM cells [3]
HPLM + 10% dialyzed FBS | 465 | 448 | 412
RPMI 5 mM glucose + 10% FBS | 476 | 469 | 401
RPMI 5 mM glucose + 10% dialyzed FBS | 460 | 464 | 410
